system: IFN-a/Jak1Tyk2; experiment: Co-stimulation assay in lysed whole blood: IFNa (JAK1/TYK2) stimulated STAT1 phosphorylation; assay type: cell-based; conditions: 20 min, lysed human whole blood, IFNa 100 ng/mL + GM-CSF 10 ng/mL, pSTAT1 by flow cytometry
Protocol: Dilute RBC lysis buffer to 1× in distilled water. Add 2 mL blood to 38 mL of 1×RBC-lysis buffer. Incubate for 15 mins at RT, in dark. Spin at 300 g, 5 mins, to collect the pellet. Re-lyse if necessary. Re-suspend pellet in 5 mL of cRPMI.
Aliquot 80 μL of lysed human blood in to wells of 96 deep-well plate. Add 10 μl of (10× conc.) of different concentrations of compounds to all wells except controls (unstained and unstimulated) and mix it with the help of 100 uL multichannel. Add 10 uL of RPMI media in controls. For dilution of compounds and dilution range please refer Appendix. Incubate on water bath or CO2 incubator for 1 hour at 37° C. Add 10 μl of (10× conc.) of cytokine mix (GM-CSF and IFNa) (final conc. 10 ng/mL of GM-CSF and 100 ng/mL of IFNa) to each well except unstimulated and unstained controls and incubate further for 20 minutes on water bath at 37° C.
Add 900 μL of prewarmed 1× Fix/Lyse solution (Appendix) and mix it properly using 1000 μl multichannel, incubate further on water bath at 37° C. for 10 minutes (which includes time of addition). Centrifuge at 800×g for 5 minutes at 40° C.; remove 900 uL of supernatant and add 900 μL of 1×PBS. Centrifuge at 800×g for 5 minutes at 40° C., remove 900 μL of supernatant. Wash one more time with 900 μL of PBS (optional) and resuspend pellets in 100 uL of PBS.
Disrupt the pellet by gentle tapping and resuspend in 1000 μL of BD Phosflow Perm Buffer III and incubate plate on ice for 30 minutes. Centrifuge plate at 800×g for 5 minutes at 40° C. Wash two more times with 1000 μL of BD Pharmingen Stain Buffer.
Disrupt the pellet by gentle tapping. Resuspend pellets in 100 uL of Stain Buffer and add 5 μL of pSTAT5_AF488 Ab and 5 uL of pSTAT1_PE in all wells except unstained control and mix properly using 200 μl multichannel, incubate overnight at […]. Add 900 μL of wash buffer and centrifuge at 1800 rpm for 3 minutes at […]. Wash one more time with 1000 μL of BD Pharmingen Stain Buffer. Finally resuspend the pellet in 300 uL of BD Pharmingen Stain Buffer. Transfer the cells to 96-well v-bottom plate and acquire the cells in Beckman Coulter CytExpert. Acquiring cells in Flow Cytometer: Keep the threshold value to 250 and cell concentration should not exceed 100-500 cells/μL. Acquire at least 5,000-10,000 cells.
Cytokine dilution: 1) GM-CSF Stock at 100 ug/mL. Prepare an intermediate dilution of 1 ug/mL by adding 2 uL of stock into 198 uL of cRPMI. Further dilute to 100 ng/mL by adding 100 uL of the intermediate stock to 900 uL of cRPMI. 2) IFNa Stock at 200 ug/mL. Dilute IFNa stock 1:200 by adding 5 uL of stock into the 1000 uL of 100 ng/mL GM-CSF working stock as above to give a combined working stock of 1000 ng/mL of IFNa and 100 ng/mL GM-CSF (10×). Keep it on ice until used.
Lyse/Fix buffer preparation: Dilute 5× Lyse/Fix buffer to 1× using MQ water and keep at 37° C. until used.
BD Phosflow perm buffer III: Keep on ice/fridge.

SMILES	IC50
CNc1cc(Nc2cn(C)nc2C(=O)Nc2ccc(N(C)C)cc2)nc2c(C(=O)NC3CC3)cnn12 [Compound 41, N-cyclopropyl-5-((3-((4-(dimethylamino)phenyl)carbamoyl)-1-methyl-1H-pyrazol-4-yl)amino)-7-(methylamino)pyrazolo[1,5-a]pyrimidine-3-carboxamide]	< 100 nM
CNc1cc(Nc2ccc3c(c2)CCN(C)C3)nc2c(C(=O)NC3CC3)cnn12 [Compound 60, N-cyclopropyl-5-((2-methyl-1,2,3,4-tetrahydroisoquinolin-6-yl)amino)-7-(methylamino)pyrazolo[1,5-a]pyrimidine-3-carboxamide]	1000 to 10000 nM
CCOC(=O)c1nscc1Nc1cc(NC)n2ncc(C(=O)NCCOC)c2n1 [Compound 45, ethyl 4-((3-((2-methoxyethyl)carbamoyl)-7-(methylamino)pyrazolo[1,5-a]pyrimidin-5-yl)amino)isothiazole-3-carboxylate]	> 300 nM
CNc1cc(Nc2cccn(-c3ccc(OC)nn3)c2=O)nc2c(C(=O)NC3CCOC3)cnn12 (stereo not drawn) [Compound 106, 5-((1-(6-methoxypyridazin-3-yl)-2-oxo-1,2-dihydropyridin-3-yl)amino)-7-(methylamino)-N-(tetrahydrofuran-3-yl)pyrazolo[1,5-a]pyrimidine-3-carboxamide]	100 to 1000 nM
CNc1cc(Nc2ccc3c(c2)OCCO3)nc2c(C(=O)NC3CC3)cnn12 [Compound 27, N-cyclopropyl-5-((2,3-dihydrobenzo [b][1,4]dioxin-6-yl)amino)-7-(methylamino)pyrazolo[1,5-a]pyrimidine-3-carboxamide]	< 100 nM
CCOC(=O)c1nscc1Nc1cc(NC)n2ncc(C(=O)NC3CC3)c2n1 [Compound 38, ethyl 4-((3-(cyclopropylcarbamoyl)-7-(methylamino)pyrazolo[1,5-a]pyrimidin-5-yl)amino)isothiazole-3-carboxylate]	> 300 nM
[2H]C([2H])([2H])Nc1cc(Nc2cccn(C)c2=O)nc2c(C(=O)NC3CCC3)cnn12 [Compound 94, N-cyclobutyl-5-((1-methyl-2-oxo-1,2-dihydropyridin-3-yl)amino)-7-((methyl-d3)amino)pyrazolo[1,5-a]pyrimidine-3-carboxamide]	< 100 nM
CNc1cc(Nc2cc(Cl)cc3c2OCCO3)nc2c(C(=O)NCC(C)(C)CO)cnn12 [Compound 92, 5-((7-chloro-2,3-dihydrobenzo[b][1,4]dioxin-5-yl)amino)-N-(3-hydroxy-2,2-dimethylpropyl)-7-(methylamino)pyrazolo[1,5-a]pyrimidine-3-carboxamide]	< 100 nM
CNc1cc(Nc2c(Cl)ccc3c2OCO3)nc2c(C(=O)NCC(C)(C)CO)cnn12 [Compound 49, 5-((5-chlorobenzo[d][1,3]dioxol-4-yl)amino)-N-(3-hydroxy-2,2-dimethylpropyl)-7-(methylamino)pyrazolo[1,5-a]pyrimidine-3-carboxamide]	1000 to 10000 nM
CNc1cc(Nc2cccc(C(=O)OC)c2)nc2c(C(=O)NC3CC3)cnn12 [Compound 29, methyl 3-((3-(cyclopropylcarbamoyl)-7-(methylamino)pyrazolo[1,5-a]pyrimidin-5-yl)amino)benzoate]	100 to 1000 nM
CNc1cc(Nc2cccc3c2OCCO3)nc2c(C(=O)NC3CCOC3)cnn12 (stereo not drawn) [Compound 68, 5-((2,3-dihydrobenzo[b][1,4]dioxin-5-yl)amino)-7-(methylamino)-N-(tetrahydrofuran-3-yl)pyrazolo[1,5-a]pyrimidine-3-carboxamide]	100 to 1000 nM
CNc1cc(Nc2cccc3c2OC(F)(F)O3)nc2c(C(=O)NCC(C)(C)CO)cnn12 [Compound 48, 5-((2,2-difluorobenzo[d][1,3]dioxol-4-yl)amino)-N-(3-hydroxy-2,2-dimethylpropyl)-7-(methylamino)pyrazolo[1,5-a]pyrimidine-3-carboxamide]	< 100 nM
CNc1cc(Nc2cccn(-c3ccc(OC)nn3)c2=O)nc2c(C(=O)NC3CC(O)C3)cnn12 (stereo not drawn) [Compound 104, N-(3-hydroxycyclobutyl)-5-((1-(6-methoxypyridazin-3-yl)-2-oxo-1,2-dihydropyridin-3-yl)amino)-7-(methylamino)pyrazolo[1,5-a]pyrimidine-3-carboxamide]	100 to 1000 nM
[2H]C([2H])([2H])n1cccc(Nc2cc(NC)n3ncc(C(=O)N[C@@H]4C[C@@H]4F)c3n2)c1=O [Compound 85, N-((1R,2S)-2-fluorocyclopropyl)-5-((1-(methyl-d3)-2-oxo-1,2-dihydropyridin-3-yl)amino)-7-(methylamino)pyrazolo[1,5-a]pyrimidine-3-carboxamide]	< 100 nM
CNc1cc(Nc2cccc3c2OCCO3)nc2c(C(=O)NC3C[C@@H]3F)cnn12 (stereo partly drawn) [Compound 97, 5-((2,3-dihydrobenzo[b][1,4]dioxin-5-yl)amino)-N-((2S)-2-fluorocyclopropyl)-7-(methylamino)pyrazolo[1,5-a]pyrimidine-3-carboxamide]	< 100 nM
[2H]C([2H])([2H])Nc1cc(Nc2cc(F)cc3c2OCCO3)nc2c(C(=O)NCC(C)(C)CO)cnn12 [Compound 98, 5-((7-fluoro-2,3-dihydrobenzo[b][1,4]dioxin-5-yl)amino)-N-(3-hydroxy-2,2-dimethylpropyl)-7-((methyl-d3)amino)pyrazolo[1,5-a]pyrimidine-3-carboxamide]	< 100 nM
CCOc1ccc(-n2cccc(Nc3cc(NC)n4ncc(C(=O)NC5CCC5)c4n3)c2=O)nn1 [Compound 108, N-cyclobutyl-5-((1-(6-ethoxypyridazin-3-yl)-2-oxo-1,2-dihydropyridin-3-yl)amino)-7-(methylamino)pyrazolo[1,5-a]pyrimidine-3-carboxamide]	< 100 nM
CNc1cc(Nc2cccc3c2CCCO3)nc2c(C(=O)NCC(C)(C)CO)cnn12 [Compound 81, 5-(chroman-5-ylamino)-N-(3-hydroxy-2,2-dimethylpropyl)-7-(methylamino)pyrazolo[1,5-a]pyrimidine-3-carboxamide]	100 to 1000 nM
CNc1cc(Nc2ccnn2C)nc2c(C(=O)NC3CC3)cnn12 [Compound 53, N-cyclopropyl-5-((1-methyl-1H-pyrazol-5-yl)amino)-7-(methylamino)pyrazolo[1,5-a]pyrimidine-3-carboxamide]	100 to 1000 nM
CC(C)(CO)CNC(=O)c1cnn2c(NC3CC3)cc(Nc3cccc4c3OCO4)nc12 [Compound 59, 5-(benzo[d][1,3]dioxol-4-ylamino)-7-(cyclopropylamino)-N-(3-hydroxy-2,2-dimethylpropyl)pyrazolo[1,5-a]pyrimidine-3-carboxamide]	1000 to 10000 nM
CNc1cc(Nc2cccn(-c3cccc(C)n3)c2=O)nc2c(C(=O)NC3CCC3)cnn12 [Compound 112, N-cyclobutyl-5-((6′-methyl-2-oxo-2H-[1,2′-bipyridin]-3-yl)amino)-7-(methylamino)pyrazolo[1,5-a]pyrimidine-3-carboxamide]	< 100 nM
CNc1cc(Nc2cccn(C)c2=O)nc2c(C(=O)N[C@H]3C[C@H]3F)cnn12 [Compound 107, N-((1S,2R)-2-fluorocyclopropyl)-5-((1-methyl-2-oxo-1,2-dihydropyridin-3-yl)amino)-7-(methylamino)pyrazolo[1,5-a]pyrimidine-3-carboxamide]	< 100 nM
[2H]C([2H])([2H])Nc1cc(Nc2cccc3c2OCCO3)nc2c(C(=O)NCC(C)(C)CO)cnn12 [Compound 84, 5-((2,3-dihydrobenzo[b][1,4]dioxin-5-yl)amino)-N-(3-hydroxy-2,2-dimethylpropyl)-7-((methyl-d3)amino)pyrazolo[1,5-a]pyrimidine-3-carboxamide]	< 100 nM

same assay, conditions: lysed human whole blood; IFNa 100 ng/mL + GM-CSF 10 ng/mL, 20 minutes; pSTAT1 by flow cytometry

SMILES	IC50
CNC(=O)c1cnn2c(NC)cc(Nc3cc(C)cc(C)c3)nc12 [Compound 9, 5-((3,5-dimethylphenyl)amino)-N-methyl-7-(methylamino)pyrazole [1,5-a]pyrimidine-3-carboxamide]	1000 to 10000 nM

— US20220135567A1, “TYK2 PSEUDOKINASE LIGANDS” (Ventyx Biosciences, Inc., priority 2019, published 2022)
